B1: PDGF-BB: recombinant human PDGF-BB (BioVision), pro-proliferative factor (protein, UniProt P01127 82-190, looked up)
Platelet-derived growth …: SLGSLTIAEPAMIAECKTRTEVFEISRRLIDRTNANFLVWPPCVEVQRCSGCCNNRNVQCRPTQVQLRPVQVRKIEIVRKKPIFKKATVTLEDHLACKCETVAAARPVT

How the values were obtained:
[1] = test system: endogenous GFAP mRNA in T6/lacZ/C1 cells; experiment: Real-time RT-PCR for endogenous rat GFAP mRNA in T6/lacZ/C1 cells; type: cell-based; conditions: TGF-β1 1 ng/ml
Protocol: Total RNA was reverse transcribed to cDNA using Taqman's reverse transcription reagent (Cat. # N808-0234A total of […] of RNA in 7.7 μl nuclease-free water was added to 2 μl 10× reverse transcriptase buffer, 4.4 μl 25 mM magnesium chloride, 4 μl deoxyNTP mixtures, 1 μl random hexamers, 0.4 μl RNase inhibitor and 0.5 μl reverse transcriptase (50 U/μl) in a final reaction volume of 20 μl. The reaction was performed for 10 min at 25° C. (annealing), 30 min at 48° C. (cDNA synthesis) and 5 min at 95° C. (enzyme denaturation).
Real-time quantitative PCR was carried out with an ABI 7500 Real Time PCR System (Applied Biosystems, CA, USA). One microliter of sample cDNA was used in each PCR reaction, with the housekeeping β-actin gene as a reference for normalization. The primers and probes for rat β-actin and GFAP were purchased from Taqman's assay-on-demand database. The PCR reaction was performed under a default profile consisting of 50° C. for 2 min (UNG activation), 95° C. for 10 min (enzyme denaturation) and 40 cycles of amplification (denaturation 15 seconds, annealing and extension 60 seconds).
Relative quantitation of the target mRNA was calculated using the comparative threshold cycle (CT) methods as described in the User Bulletin #2 (ABI Prism 7700 Sequence Detection System). CT indicates the fractional cycle number at which the amount of amplified target reaches a fixed threshold within the linear phase of gene amplification. ΔCT, which reflects the difference between CT target and CT β-actin, is inversely correlated to the abundance of mRNA transcripts in the samples. ΔCT for each sample was normalized against control experiment or calibrator and expressed as ΔΔCT. Relative quantitation is given by 2^−ΔΔCT to express the up-regulation or down-regulation of the target gene under the treatments compared to the control.
It was known that GFAP, along with desmin, SMAA, and vimentin, was expressed in the clonal T6 cells (Vogel et al. (2000), J Lipid Res. 41(6):882). Naturally, the endogenous GFAP should be expressed in the T6/lacZ/C1 cells as well. In order to investigate how the endogenous GFAP expression is regulated by TGF-β1 in the T6/lacZ/C1 cells during different time course, we quantified rat GFAP mRNA level using a real-time RT-PCR method. Cells were similarly grown and treated with TGF-β1 (1 ng/ml) for various times (0, 2, 8, 16, 24, 48 and 72 hours), as described for the enzymatic assay experiments above. Total RNA was isolated from different cells and quantified as described in Materials and Methods, and the results were depicted in FIG. 11.

[2] = test system: T6/lacZ/C1 cells (2.2 kb hGFAP-lacZ transgene); experiment: Quantitative solution assay of β-galactosidase activity in T6/lacZ/C1 cell extracts; type: cell-based, rat
Protocol: To quantify the β-galactosidase activity in cell extracts reported in FIGS. 4 to 10, an enzyme assay kit (E2000, Promega, Wis., USA) was used to measure the specific activity of β-galactosidase, according to the manufacturer's instructions in a 96-well format. Briefly, the cells were washed twice with 1×PBS buffer (pH7.4), lysed for 15 minutes at room temperature with the reporter lysis buffer, and harvested using a cell scraper. The total cell extracts were appropriately diluted (5-10 fold), and assayed for the enzyme activity. The specific β-galactosidase activity was expressed in milliunit per milliliter (mU/ml) using a standard curve established from the β-galactosidase standard (provided with the kit). The protein concentration was measured with a BCA protein assay kit (Pierce, Ill., USA), and used to further convert the specific β-galactosidase activity from mU/ml to mU/μg total cellular protein. Six independent experiments were performed for each time and concentration data point.
(§1) Cells were seeded into 12-well plates in full DMEM and 500 μg/ml Zeocin. Twelve hours prior to the cytokine treatment, medium was changed so that the cells were allowed to grow in low serum (0.5% FBS) DMEM. The cells at a confluence of 70-80% were incubated with various concentrations (0, 0.1, 1 and 10 […]) of recombinant human TGF-β1, PDGF-BB (BioVision, CA, USA) and 0, 0.1, 1 and 10 μg/ml lipopolysaccharide (LPS E. coli, Sigma) respectively for 0, 2, 8, 16, 24, 48 and 72 hours before they were harvested for β-galactosidase activity assay and real-time RT-PCR GFAP assay.
A β-galactosidase activity assay kit (Promega, Wis., USA) was used to measure transgene expression level in the T6/lacZ/C1 clone, using the nontransfected T6 as a negative basal control. When grown in the full DMEM medium to 70-80% confluence, the T6/lacZ/C1 cells yielded an average reading of approximately 0.5 mU/μg, about five times of that in normal T6 cells. The basal reading in the T6 cells was not influenced by the addition of cytokines or LPS (data not shown). For comparison purpose, the β-galactosidase activity in a randomly selected C6 clone containing the 2.2 kb hGFAP-lacZ transgene (designated as C6/lacZ/C4) was measured to have an activity of about 2 mU/μg, […] of that in the T6/lacZ/C1 cells. When incubated with TGF-β1 (0 to 10 ng/ml), the C6/lacZ/C4 cells yielded an induction dynamics of 130 to 200% of the untreated control.
To quantify specific transgene response to TGF-β1, we first set up an experiment to assess possible effects that serum concentration and culture duration may have on the transgene expression. T6/lacZ/C1 cells were initially grown in DMEM with high serum (10% FBS), and then some of the cells were starved with a DMEM with low serum (0.5% FBS) for 12 hours prior to the addition of TGF-β1 (1 ng/ml). After incubation for various times (0, 2, 8, 24, 48 and 72 hours), cells were harvested for β-galactosidase activity assay. […] After 72 hours, the level slipped to 58% of the value at 0 hour (P<0.001). The assay results were depicted in FIG. 8.
To further dissect the TGF-β1 contribution to the transgene induction, we treated T6/lacZ/C1 cells grown in low serum with various concentrations of TGF-β1 (0, 0.1, 1, 10 ng/ml) and assayed the enzymatic activity for three time points (24, 48 and 72 hours). The assay results were plotted in FIG. 9. […] When the non-treatment groups were normalized to 1 and the magnitude of induction were plotted for the 10 ng/ml treatment groups at all three time points (FIG. 10), a trend of increasing induction with time was apparent.

[3] = test system: T6/lacZ/C1 cells (2.2 kb hGFAP-lacZ transgene); experiment: X-gal staining of T6/lacZ/C1 cells treated with TGF-β1, PDGF-BB and LPS; type: cell-based, rat; conditions: for X-gal blue staining (β-galactosidase) compared to the untreated: 0.1 to 10 ng/ml, 72 hours, X-gal one hour; for expression of a transgene operably coupled to a hGFAP promoter in HSC cell culture: summary statement
Protocol: A lacZ reporter assay kit for cell staining (InvivoGen, CA, USA) was used to detect the reporter gene activity in both stable and transient transfectants. Development of the blue end product was monitored at different time intervals (15, 30, 60, 90, and 120 minutes). The staining results were documented with a digital camera (DP12) attached to an Olympus inverted bright field microscope (IX51).
as §1
To determine possible induction of GFAP-lacZ expression by molecules with profibrotic and proinflammatory properties in activated HSC the T6/lacZ/C1 cells were treated with TGF-β1, PDGF-BB and LPS respectively at various concentrations (0, 0.1, 1 and 10 ng/ml) in the full DMEM medium for 72 hours. The cells were then stained with X-gal for one hour and photographed. […] In order to obtain truly quantitative data, a solution assay was employed to measure possible up-regulation of β-galactosidase activity by TGF-β1 in experiments below.

| Molecule | GFAP mRNA level relative to basal level (normalized to 1) at 0 hour ([1]; 16 hour (P<0.005)) | GFAP mRNA level relative to basal level (normalized to 1) at 0 hour ([1]; 48 hours) | GFAP mRNA level relative to basal level (normalized to 1) at 0 hour ([1]; 72 hours) | GFAP mRNA level relative to basal level at 0 hour ([1]; first 24 hours) | induction of β-galactosidase activity vs non-induced ([2]; 1 ng/ml TGF-β1, low serum, 24 hours (P<0.05)) | absolute enzymatic activity (β-galactosidase) ([2]; 10 ng/ml TGF-β1, 72 hours) | fold induction of β-galactosidase specific activity, non-treatment normalized to 1 ([2]; 10 ng/ml TGF-β1, 72 hours) | induction of β-galactosidase activity vs non-induced ([2]; 10 ng/ml TGF-β1, low serum, 24, 48 and 72 hours (P<0.001)) | transgene expression level ([2]; TGF-β1 1 ng/ml, 0.5% FBS, 2 and 8 hours) | β-galactosidase specific activity at peak ([2]; TGF-β1 1 ng/ml, 0.5% FBS, 24 hour) | transgene expression level ([2]; TGF-β1 1 ng/ml, 0.5% FBS, 48 hours) | transgene expression level, % of the value at 0 hour ([2]; TGF-β1 1 ng/ml, 0.5% FBS, 72 hours) | X-gal blue staining (β-galactosidase) compared to the untreated [3] | expression of a transgene operably coupled to a hGFAP promoter in HSC cell culture [3] |
| --- | --- | --- | --- | --- | --- | --- | --- | --- | --- | --- | --- | --- | --- | --- |
| TGF-β1: recombinant human TGF-β1 (BioVision), pro-fibrotic factor | 0.5 fold | 7 fold | 8.5 fold | remained steady | induction was seen | 0.43 mU/μg | nearly two fold | Significant induction | rapidly elevated | 0.52 mU/μg | dropped to the same level as at 0 hour | 58% | more intense blue staining | induced in a dose-dependent manner |
| B1 |  |  |  |  |  |  |  |  |  |  |  |  | less pronounced response | induced in a dose-dependent manner |

Reference: patent US7863251B2, “Hepatic stellate cell specific promoter and uses thereof” (Agency for Science, Technology and Research, priority 2005, dated 2011)
